From patent US10221163B2 (priority 2015, dated 2019)
Read-outs that look alike come from different tables or passages of the source.

Key:
IMP-1 = IMP-1 (Serratia marcescens, UniProt P52699); test: biochemical; format: biochemical; conditions: fluorescence assay, CCF2-FA substrate, 2 pM enzyme, 2 hours at 25° C.; read-out: IMP-1 IC50
How it was run: (§1)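 Class B activity is measured in the presence of compound by fluorescence with CCF2-FA after a 2-hour incubation at 25° C. IC50 is taken from a 4-parameter fit of semi-logarithmic dose-response data.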

NDM-1 = NDM-1 (Klebsiella pneumoniae, UniProt C7C422); test: biochemical; format: biochemical; conditions: fluorescence assay, CCF2-FA substrate, 1 pM enzyme, 2 hours at 25° C.; read-out: NDM-1 IC50
Chain of NDM-1 (C7C422 whole entry, looked up, species assumed): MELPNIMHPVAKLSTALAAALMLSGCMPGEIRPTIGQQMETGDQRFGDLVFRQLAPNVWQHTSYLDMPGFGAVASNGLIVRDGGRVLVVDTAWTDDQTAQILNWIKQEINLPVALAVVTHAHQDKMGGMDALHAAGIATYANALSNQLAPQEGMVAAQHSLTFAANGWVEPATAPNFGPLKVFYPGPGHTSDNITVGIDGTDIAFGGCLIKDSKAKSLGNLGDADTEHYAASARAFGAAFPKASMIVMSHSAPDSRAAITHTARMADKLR
How it was run: as §1

VIM-1 = VIM-1 (Pseudomonas aeruginosa (strain ATCC 15692 / DSM 22644 / CIP 104116 / JCM 14847 / LMG 12228 / 1C / PRS 101 / PAO1), UniProt A0A0F7KYQ8); test: biochemical; conditions: CCF2-FA substrate, 30 pM enzyme, 2 hours at 25° C.
How it was run: as §1

[1] = system: Escherichia coli expressing NDM-1 (CLB30005, CLB30016); format: cell-based; conditions: with imipenem 1 μg/ml; 95% inhibition of bacterial growth
How it was run: (§2)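 Clinical isolates (E. coli NDM-1, S. marcescens IMP-1, K. pneumoniae VIM-1) were diluted 1:100 from saline suspension into 1.1×CAMHB and exposed to test compound with imipenem at 1 μg/ml. Plates were incubated at 35° C for 22 hours to 24 hours, and growth was read by absorbance.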

[2] = system: Klebsiella pneumoniae expressing VIM-1 (IHMA599644); format: cell-based; conditions: with imipenem 1 μg/ml; 95% inhibition of bacterial growth
How it was run: as §2

[3] = system: Serratia marcescens expressing IMP-1 (CL5741); format: cell-based; conditions: with imipenem 1 μg/ml; 95% inhibition of bacterial growth
How it was run: as §2

[4] = system: Pseudomonas aeruginosa efflux+ (MB9798), IMP-1; format: cell-based; conditions: concentration restoring susceptibility to imipenem at 2 μg/mL in the presence of a class A, C, D serine β-lactamase inhibitor closely related to relebactam
How it was run: (§3)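 PAO1 pair, broth microdilution; fixed β-lactam (imipenem/ceftazidime) at ~CLSI breakpoint + fixed class A/C BLI for AmpC; serial MBLi titration; endpoint = MBLi conc. restoring susceptibility; MB9798:MB9799 ratio = efflux liability.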

[5] = system: Pseudomonas aeruginosa efflux− (MB9799), IMP-1; format: cell-based; conditions: concentration restoring susceptibility to imipenem at 2 μg/mL in the presence of a class A, C, D serine β-lactamase inhibitor closely related to relebactam
How it was run: as §3

[6] = system: Pseudomonas aeruginosa MB9798 vs MB9799; conditions: ratio MITC95 PA_9798/MITC95 PA_9799
How it was run: as §3

[7] = fluorescence assay, read-out: VIM-1 IC50

Chain of IMP-1 (P52699 whole entry, looked up, species assumed): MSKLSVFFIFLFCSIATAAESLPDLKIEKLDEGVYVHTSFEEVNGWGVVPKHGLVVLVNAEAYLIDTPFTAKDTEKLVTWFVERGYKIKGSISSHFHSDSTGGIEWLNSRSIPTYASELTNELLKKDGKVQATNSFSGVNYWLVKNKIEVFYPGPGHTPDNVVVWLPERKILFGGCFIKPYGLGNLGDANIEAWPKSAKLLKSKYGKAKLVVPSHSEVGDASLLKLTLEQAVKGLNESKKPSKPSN

SMILES | IC50 (IMP-1) | IC50 (NDM-1) | IC50 (VIM-1; VIM-1 IC50, fluorescence assay) | Escherichia coli expressing NDM-1 (CLB30016) MITC95 [1] | Klebsiella pneumoniae expressing VIM-1 (IHMA599644) MITC95 [2] | Serratia marcescens expressing IMP-1 (CL5741) MITC95 [3] | P. aeruginosa expressing IMP-1, efflux + (MB9798) MITC95 [4] | P. aeruginosa expressing IMP-1, efflux − (MB9799) MITC95 [5] | Efflux ratio [6] | IC50 (VIM-1; [7])
NCCNS(=O)(=O)c1ccc(-c2cccc3[nH]c(N)nc23)c(-c2nn[nH]n2)c1S(N)(=O)=O [Example 12, 4-(2-amino-1H-benzo[d]imidazol-4-yl)-N^1-(2-aminoethyl)-3-(2H-tetrazol-5-yl)benzene-1,2-disulfonamide] | 0.316 nM | 0.0429 nM | 0.102 nM | 0.25 µM | 0.5703 µM | 0.6302 µM | 0.375 µM | 0.5 µM | 0.75 | 
NCCNS(=O)(=O)c1ccc(-c2cccc3oc(C(=O)O)nc23)c(-c2nn[nH]n2)c1S(N)(=O)=O [Example 13, 4-(4-(N-(2-aminoethyl)sulfamoyl)-3-sulfamoyl-2-(2H-tetrazol-5-yl)phenyl)benzo[d]oxazole-2-carboxylic acid] | 2.14 nM | 0.0757 nM |  | 12.5 µM | 25 µM | 12.5 µM | 12.5 µM | 6.25 µM | 2.00 | 0.412 nM
Nc1nc2c(-c3ccc(S(=O)(=O)NC4CCS(=O)(=O)CC4)c(S(N)(=O)=O)c3-c3nnn[nH]3)cccc2s1 [Example 14, 4-(2-amino-1,3-benzothiazol-4-yl)-N1-(1,1-dioxidotetrahydro-2H-thiopyran-4-yl)-3-(1H-tetrazol-5-yl)benzene-1,2-disulfonamide] | 0.173 nM | 0.0255 nM |  | 12.5 µM | 12.5 µM | 3.125 µM | 3.125 µM | 3.125 µM | 1.00 | 0.176 nM
Nc1nc2c(-c3ccc(S(=O)(=O)NCCN4CCNC(=O)C4)c(S(N)(=O)=O)c3-c3nnn[nH]3)cccc2s1 [Example 15, 4-(2-amino-1,3-benzothiazol-4-yl)-N1-[2-(3-oxopiperazin-1-yl)ethyl]-3-(1H-tetrazol-5-yl)benzene-1,2-disulfonamide] | 0.451 nM | 0.0926 nM |  | 50 µM | 25 µM | 12.5 µM | 12.5 µM | 12.5 µM | 1.00 | 0.394 nM
CN(C)CC(F)(F)CNS(=O)(=O)c1ccc(-c2cccc3sc(N)nc23)c(-c2nnn[nH]2)c1S(N)(=O)=O [Example 16, 4-(2-amino-1,3-benzothiazol-4-yl)-N1-[3-(dimethylamino)-2,2-difluoropropyl]-3-(1H-tetrazol-5-yl)benzene-1,2-disulfonamide] | 0.442 nM | 0.0921 nM |  | 25 µM | 25 µM | 12.5 µM | 100 µM | 6.25 µM | 16.00 | 0.461 nM
CN1CCOC(CNS(=O)(=O)c2ccc(-c3cccc4sc(N)nc34)c(-c3nnn[nH]3)c2S(N)(=O)=O)C1 (stereo not drawn) [Example 17, 4-(2-amino-1,3-benzothiazol-4-yl)-N1-[(4-methylmorpholin-2-yl)methyl]-3-(1H-tetrazol-5-yl)benzene-1,2-disulfonamide] | 0.43 nM | 0.0889 nM |  | 12.5 µM | 12.5 µM | 6.25 µM | 12.5 µM | 6.25 µM | 2.00 | 0.41 nM
CN1CCCC(NS(=O)(=O)c2ccc(-c3cccc4sc(N)nc34)c(-c3nnn[nH]3)c2S(N)(=O)=O)C1 (stereo not drawn) [Example 18, 4-(2-amino-1,3-benzothiazol-4-yl)-N1-(1-methylpiperidin-3-yl)-3-(1H-tetrazol-5-yl)benzene-1,2-disulfonamide] | 0.268 nM | 0.0488 nM |  | 6.25 µM | 6.25 µM | 3.125 µM | 3.125 µM | 3.125 µM | 1.00 | 0.271 nM
Nc1nc2c(-c3ccc(S(=O)(=O)NCC4CCC(=O)N4)c(S(N)(=O)=O)c3-c3nnn[nH]3)cccc2s1 (stereo not drawn) [Example 19, 4-(2-amino-1,3-benzothiazol-4-yl)-N1-[(5-oxopyrrolidin-2-yl)methyl]-3-(1H-tetrazol-5-yl)benzene-1,2-disulfonamide] | 0.486 nM | 0.0953 nM |  | 50 µM | 25 µM | 6.25 µM | 6.25 µM | 6.25 µM | 1.00 | 0.335 nM
Cn1cnc(CNS(=O)(=O)c2ccc(-c3cccc4sc(N)nc34)c(-c3nnn[nH]3)c2S(N)(=O)=O)n1 [Example 20, 4-(2-amino-1,3-benzothiazol-4-yl)-N^1-[(1-methyl-1H-1,2,4-triazol-3-yl)methyl]-3-(1H-tetrazol-5-yl)benzene-1,2-disulfonamide] | 0.817 nM | 0.0973 nM |  | 25 µM | 25 µM | 6.25 µM | 6.25 µM | 6.25 µM | 1.00 | 0.494 nM
CN(C)CCNS(=O)(=O)c1ccc(-c2cccc3sc(N)nc23)c(-c2nnn[nH]2)c1S(N)(=O)=O [Example 22, 4-(2-amino-1,3-benzothiazol-4-yl)-N^1-[2-(dimethylamino)ethyl]-3-(1H-tetrazol-5-yl)benzene-1,2-disulfonamide] | 0.413 nM | 0.0348 nM |  | 6.25 µM | 3.125 µM | 3.125 µM | 1.563 µM | 1.563 µM | 1.00 | 0.233 nM
